Experimental data published in patent publication US12083084B2, “Method for enhancing energy production and metabolism in cells” (REPLICON HEALTH OY, priority 2013, dated 2024).

Key:
400 m running experiment = assay type: in vivo, human
Method: Two healthy male volunteers S1 and S3 from Example 2.1 participated in 400 m running experiment with 4 day administration of DGAcs and without it. The experiments were done at 2-3 pm in the afternoon. In DGA experiment additional dose of DGAcs (5 mg/kg) was taken before lunch at 11 am, and lunch was eaten at 12 am. […] The length of the 400 m exercise at full speed was too much especially for S1. […] This difference was striking especially for S3 and can be as a result in decreased acidosis.

[1] = cited from earlier work
[2] = Extended 8 week administration and 2 week control period for S4 (Example 2.2); assay type: in vivo, human; settings: for AST/ALT / S-Bil / S-Uraat / fS-Fe / fS-Trigly: fasting blood
Method: For Subject 4 (S4) in Example 2.1, the 4 day test period was prolonged by 8 weeks with reduced, only once a day 5 mg/kg/day administration before going to bed. Additionally in order to have an understanding that the results in the 8 week test were due to the administration of the Innovation, an additional negative control measurement without DGAcs after 2 weeks and 2 days was made (+2 days due to alleviating doses see below). The idea was to see, if the beneficial effects seen in 4 day treatment prevailed in longer term (positive control).

[3] = Rate of ethanol oxidation in rats; assay type: in vivo, rat; settings: AA rats given ethanol (1.2 per mille), not statistically significant
Source text: In this experiment nutrition intake, except of course for DGAcs, was controlled to be exactly the same during the experimental day, and three day before the experiment. For AA rats, that are used to alcohol but didn't receive any alcohol in 3 day before the experiment, catabolic redox-activity in the cytosol was controlled by giving rats ethanol (equaling 1.2 per mille blood alcohol concentration, which represents only mild alcohol intoxication to the AA rats). The rate of ethanol oxidation remained the same in all groups.
Experimental session started at 8:00 to 9:00 am. To diminish possible pain during the experiments, all animals were injected subcutaneously with buprenorphine (0.01 mg/kg) a few minutes before the blood samples. During the experimental session no difference in other metabolic activity, e.g. rate of ethanol oxidation, between the control and treatment group was detected from blood samples. […] The resulting supernatants were used for free glycerol measurement with an enzymatic end point commercial assay kit (Boehringer-Mannheim, R-Biopharm, Darmstadt, Germany) according to the manufacturer's protocol except that the assays were modified for use with small volumes of supernatant using a 96-well microplate reader (Labsystems Multiskan RS, Helsinki, Finland). […]

peripheral leukocytes = assay: Gene expression from in vivo blood samples (TRAC); design: species or system human; settings: for AOX1 gene expression, Change % / CYP1A2 gene expression, Change % / CYP2B6 gene expression, Change % / CYP2C9 gene expression, Change % / CYP3A4 gene expression, Change % / G6PD gene expression, Change % / GPD2 gene expression, Change % / GRHPR gene expression, Change % / HO-1 gene expression, Change % / MT-CO1 gene expression, Change % / MT-CYB gene expression, Change % / PGC-1a gene expression, Change %: S1 and S9 combined, vs control
Method: In the above 4.5 day experiment samples of peripheral leukocytes were collected from S1 and S9 in fasting condition (0 h), and also 1 hour (1 h) after taking 75 grams of glucose (Glutole, Biofile Pharma, 330 ml) for glucose tolerance test. Additional gene expression measurement was done from a separate 12 hour treatment for S1 and S9. In the 12 h test only two last doses of DGAcs were administered, first dose 12 h earlier than the blood sample, and the last/second dose 2.5 h earlier in the same morning (like in 4.5 day experiment). For the statin group, S10 and S11, only one gene expression measurement was done in two hours after the fasting blood sample. Leukocytes were immediately separated from blood samples, and after separation immediately lysed by stop solution and stored in freezer according to instructions by the service provider.
For S1 and S9 there were altogether 4 measurement points for gene expression, and only 3 repeats for each measurement. Results are presented in Table 6 below; changes of gene expressions compared to the control from peripheral leukocytes are presented. The Gene Expression analyses was conducted using TracTechnology by PlexPress Ltd in Helsinki. The TRAC data presented in Table 6 has been generated according to process instructions with quality tested instruments and reagents. PlexPress Quality Management System is set up according to the ISO 9001 standard. P-values are from t-distribution of a one sided test of deviation from control average, and are presented only when below 10%.

[4] = S4, +2 weeks follow up after stopping DGAcs (negative control), change from previous observation (+8 weeks)
[5] = S4, +2 weeks follow up after stopping DGAcs (negative control)
[6] = S4, +8 weeks 5 mg/kg once a day (positive control), change from previous observation (4 day)
[7] = S4, +8 weeks 5 mg/kg once a day (positive control)
[8] = 12 hour + 0 h test (two doses, fasting)
[9] = 12 hour + 1 h test (1 h after 75 g glucose)
[10] = 4.5 day + 1 h test (1 h after 75 g glucose)

## O=C(O)[C@H](O)CO [DGA, D-glyceric acid]
400 m running experiment; S1 and S3, qualitative
  readiness to resume other physical exercise after 400 m run: much more ready to resume other physical exercise
400 m running experiment; S3, 4 day administration + 5 mg/kg before lunch
  400 m running times, control vs DGA: no significant differences
[1]
  solubility: readily soluble in water and alcohol

## O.O.O=C([O-])[C@H](O)CO.O=C([O-])[C@H](O)CO.[Ca+2] [DGAcs, D-glyceric acid, calcium salt dehydrate]
[2]; [4]
  S-Asat, change: 24.1%
  S-Bil, change: 41.7%
  S-Uraat, change: 19.4%
  S-alat, change: −35.1%
  fS-Fe, change: −3.2%
  fS-Trigly, change: −17.8%
[2]; [5]
  AST/ALT: 1.44
  S-Bil: 10.2
  S-Uraat: 295
  fS-Fe: 15.1
  fS-Trigly: 1.11
[2]; [6]
  S-Asat, change: 31.8%
  S-Bil, change: −25.8%
  S-Uraat, change: 0.4%
  S-alat, change: 85.0%
  fS-Fe, change: −22.8%
  fS-Trigly, change: −22.0%
[2]; [7]
  AST/ALT: 0.78
  S-Bil: 7.2
  S-Uraat: 247
  fS-Fe: 15.6
  fS-Trigly: 1.35
[2]; S4, after 8 weeks of 5 mg/kg/day
  time without dose until withdrawal symptoms started: 36 h
[2]; S4, after 8 weeks of 5 mg/kg/day, bad feeling inside the head, dizziness, uneasiness
  withdrawal symptoms after stopping administration: very clear but not severe
[3]
  rate of ethanol oxidation, maximum acceleration compared to control: ~3.6%
Peripheral leukocytes; [8]
  AOX1 gene expression, Change %: −6%
  CYP1A2 gene expression, Change %: 100%
  CYP2B6 gene expression, Change %: −14%
  CYP2C9 gene expression, Change %: 8%
  CYP3A4 gene expression, Change %: −17%
  G6PD gene expression, Change %: 3%
  GPD2 gene expression, Change %: 24%
  GRHPR gene expression, Change %: −26%
  HO-1 gene expression, Change %: −31%
  MT-CO1 gene expression, Change %: −10%
  MT-CYB gene expression, Change %: −2%
  PGC-1a gene expression, Change %: −3%
Peripheral leukocytes; [9]
  AOX1 gene expression, Change %: 8%
  CYP2B6 gene expression, Change %: 8%
  CYP2C9 gene expression, Change %: 18%
  CYP3A4 gene expression, Change %: −45%
  G6PD gene expression, Change %: 18%
  GPD2 gene expression, Change %: 23%
  GRHPR gene expression, Change %: 6%
  HO-1 gene expression, Change %: −54%
  MT-CO1 gene expression, Change %: 4%
  MT-CYB gene expression, Change %: 2%
  PGC-1a gene expression, Change %: −21%
Peripheral leukocytes; 4.5 day + 0 h test (fasting)
  CYP1A2 gene expression, Change %: 62%
  CYP2B6 gene expression, Change %: 73%
  CYP2C9 gene expression, Change %: 0%
  CYP3A4 gene expression, Change %: 67%
  G6PD gene expression, Change %: 9%
  GPD2 gene expression, Change %: 31%
  GRHPR gene expression, Change %: 70%
  HO-1 gene expression, Change %: 82%
  MT-CO1 gene expression, Change %: 24%
  MT-CYB gene expression, Change %: 22%
Peripheral leukocytes; [10]
  CYP1A2 gene expression, Change %: 14%
  CYP2B6 gene expression, Change %: 147%
  CYP2C9 gene expression, Change %: 46%
  CYP3A4 gene expression, Change %: 69%
  G6PD gene expression, Change %: −13%
  GPD2 gene expression, Change %: 0%
  GRHPR gene expression, Change %: 100%
  HO-1 gene expression, Change %: 110%
  MT-CO1 gene expression, Change %: 23%
  MT-CYB gene expression, Change %: 21%
  PGC-1a gene expression, Change %: 30%
Peripheral leukocytes; S10, statin group
  CYP3A4 gene expression vs control: statistically significantly up regulated
Peripheral leukocytes; S10, statin group (halved dose of Simvastatin), 4.5 day
  increase in HO-1 gene expression: 160%
Peripheral leukocytes; S10, statin group, 4.5 day panel
  AOX1 gene expression increased by: 56%
